From DBAASP come the findings set out here.

Converted amounts (≈) assume the structure as drawn.

Some test systems named below: Escherichia coli 09-280; Escherichia coli 5509; Escherichia coli 170; Escherichia coli 09-240; Candida krusei ATCC 6258; Candida krusei; Candida tropicalis; Candida parapsilosis; Candida albicans.
What all share (test): ≥ marks a high value that may be exact or a test limit, other limits are often not marked, values filed in µg/mL are converted to µM
In experiment [1] the test system is Enterobacter cloacae 06-267.
Experiment [2] relates to Acinetobacter baumannii 5821.
The subject of experiment [3] is Staphylococcus aureus 01-001.
Experiment [4] relates to Klebsiella pneumoniae 01-239.
Experiment [5] has as its system Escherichia coli ATCC 25922.
Experiment [6] concerns Pseudomonas aeruginosa 3599.
For experiment [7], the system named is Staphylococcus aureus 06-051.
Experiment [8] deals with Pseudomonas aeruginosa ATCC 27853.
For experiment [9], the system named is Pseudomonas aeruginosa 5106.
For experiment [10], the system named is Enterobacter cloacae 14-262.
Experiment [11] has as its system Staphylococcus aureus ATCC 29213.
Experiment [12] concerns Staphylococcus aureus ATCC 25923.
In experiment [13] the test system is Pseudomonas aeruginosa ATCC 9027.
Experiment [14] concerns Klebsiella pneumoniae 01-252.
For experiment [15], the system named is Candida parapsilosis ATCC 22019.
The subject of experiment [16] is Klebsiella pneumoniae ATCC 700603.
For experiment [17], the system named is Bacillus cereus ATCC 11778.
The subject of experiment [18] is Escherichia coli CCT 1457.
Experiment [19] has as its system Candida glabrata ATCC 2001.
For experiment [20], the system named is Candida albicans ATCC 14053.
Experiment [21] concerns Staphylococcus epidermidis ATCC 12228.
Experiment [22] deals with Escherichia coli ATCC 43827.
Experiment [23] concerns Staphylococcus aureus CCT 2580.
Experiment [24] deals with Candida tropicalis ATCC 750.
Experiment [25] relates to Pseudomonas aeruginosa ATCC 15442.
Experiment [26] concerns Cronobacter sakazakii ATCC 29544.
The test system of experiment [27] is Klebsiella pneumoniae KK3 9904.
Experiment [28] deals with Staphylococcus aureus NCTC 8325.
Experiment [29] deals with Proteus mirabilis ATCC 25933.
The test system of experiment [30] is Enterococcus faecalis ATCC 29212.
Experiment [31] deals with Batrachochytrium dendrobatidis JEL-197.
Experiment [32] deals with Candida albicans ATCC 90028.
Experiment [33] deals with Staphylococcus epidermidis RP62A.
In experiment [34] the test system is Enterobacter cloacae HNTCC 53001.
Experiment [35] deals with Bordetella bronchiseptica CUN 11844-99.
For experiment [36], the system named is Staphylococcus aureus ATCC 43300.
The subject of experiment [37] is Stenotrophomonas maltophilia CUN 3998-00.
Experiment [38] relates to Staphylococcus aureus CUN 3792-99.
Experiment [39] relates to Acinetobacter baumannii ATCC 19606.
Experiment [40] concerns Pseudomonas aeruginosa CUN 4158-02.

Consider `CC[C@H](C)[C@H](NC(=O)[C@H](C)NC(=O)[C@H](CC(N)=O)NC(=O)[C@H](CCCCN)NC(=O)[C@@H](NC(=O)CNC(=O)[C@H](CCC(=O)O)NC(=O)[C@H](Cc1c[nH]c2ccccc12)NC(=O)[C@H](CC(C)C)NC(=O)[C@H](CCCCN)NC(=O)CNC(=O)[C@H](Cc1c[nH]c2ccccc12)NC(=O)[C@H](Cc1ccccc1)NC(=O)CN)C(C)C)C(N)=O` [GFWGKLWEGVKNAI], for which the MIC in experiment [1] is not below 32 µM; in experiment [2] it was 7 µM (≈ 11.2 µg/mL); in [3], 4 µM (≈ 6.42 µg/mL); in the experiment on Escherichia coli 09-280, not below 32 µM; in experiment [4], 12 µM (≈ 19.2 µg/mL); in experiment [5], 10 µM (≈ 16 µg/mL). The minimum inhibitory concentration (MIC) in experiment [6] is not below 32 µM; in [7] it was 4 µM (≈ 6.42 µg/mL); in experiment [8], more than 32 µM; in experiment [9] it was not below 32 µM; in [10], 14 µM (≈ 22.5 µg/mL); in the experiment with Escherichia coli 5509 it was not below 32 µM. Besides, the minimal inhibitory concentration (MIC) against Escherichia coli 170 was not below 32 µM; in [11], 4 µM (≈ 6.42 µg/mL); against Escherichia coli 09-240, 14 µM (≈ 22.5 µg/mL); in experiment [12], 15 µM (≈ 24.1 µg/mL); in experiment [13], 10 µM (≈ 16 µg/mL); in [14], not below 32 µM.

Regarding `CC[C@H](C)[C@H](N)C(=O)N[C@@H](CC(N)=O)C(=O)N[C@@H](Cc1c[nH]c2ccccc12)C(=O)N[C@@H](CC(C)C)C(=O)N[C@@H](CCCCN)C(=O)N[C@@H](CC(C)C)C(=O)NCC(=O)N[C@@H](CCCCN)C(=O)N[C@@H](CCSC)C(=O)N[C@H](C(=O)N[C@H](C(=O)N[C@@H](CC(=O)O)C(=O)N[C@@H](C)C(=O)N[C@@H](CC(C)C)C(N)=O)[C@@H](C)CC)C(C)C` [INWLKLGKMVIDAL], the MIC was 16 µM (≈ 25.8 µg/mL) in experiment [15]; 4 µM (≈ 6.45 µg/mL) in experiment [16]; 4.96 µM (≈ 8 µg/mL) in [17]; 4.96 µM (≈ 8 µg/mL) in experiment [18]; 8 µM (≈ 12.9 µg/mL) in [5]; 8 µM (≈ 12.9 µg/mL) in [19]. Also, the minimal inhibitory concentration (MIC) turned out to be 8 µM (≈ 12.9 µg/mL) in experiment [8]; 16 µM (≈ 25.8 µg/mL) in experiment [20]; 4 µM (≈ 6.45 µg/mL) in [21]; 8 µM (≈ 12.9 µg/mL) in experiment [22]; 8 µM (≈ 12.9 µg/mL) in the experiment on Candida krusei ATCC 6258; 2.48 µM (≈ 4 µg/mL) in [23]. The minimum inhibitory concentration (MIC) was 2 µM (≈ 3.23 µg/mL) in experiment [24], 4 µM (≈ 6.45 µg/mL) in experiment [11], not below 38.4 µM in experiment [25] and 16 µM (≈ 25.8 µg/mL) in experiment [26].

As for `CC[C@H](C)[C@H](NC(=O)[C@@H]1CCCN1C(=O)[C@H](CC(C)C)NC(=O)[C@@H](N)Cc1ccccc1)C(=O)N[C@@H](CC(C)C)C(=O)N[C@@H](C)C(=O)N[C@@H](CO)C(=O)N[C@@H](CC(C)C)C(=O)N[C@@H](C)C(=O)N[C@@H](C)C(=O)N[C@@H](CCCCN)C(=O)N[C@@H](Cc1ccccc1)C(=O)NCC(=O)N1CCC[C@H]1C(=O)N[C@@H](CCCCN)C(=O)N[C@@H](CC(C)C)C(=O)N[C@@H](Cc1ccccc1)C(=O)N[C@H]1CSSC[C@@H](C(=O)O)NC(=O)[C@H](CCCCN)NC(=O)[C@H](CCCCN)NC(=O)[C@H]([C@@H](C)O)NC(=O)[C@H](C(C)C)NC(=O)[C@H](CC(C)C)NC1=O` [FLPILASLAAKFGPKLFCLVTKKC], the minimal inhibitory concentration (MIC) was not below 40 µM in experiment [27]; 5 µM (≈ 13 µg/mL) in experiment [15]; 2 µM (≈ 5.21 µg/mL) in experiment [28]; not below 40 µM in experiment [29]; 5 µM (≈ 13 µg/mL) in [30]; 12.5 µM (≈ 32.6 µg/mL) in experiment [31]. Further, the minimum inhibitory concentration (MIC) in experiment [5] stood at 17 µM (≈ 44.3 µg/mL); with Candida krusei, 10 µM (≈ 26.1 µg/mL); in [8], 10 µM (≈ 26.1 µg/mL); against Candida tropicalis, 5 µM (≈ 13 µg/mL); in the experiment on Candida parapsilosis, 10 µM (≈ 26.1 µg/mL); in [32], 3 µM (≈ 7.82 µg/mL). In addition, the MIC in [33] stood at 5 µM (≈ 13 µg/mL); against Candida krusei ATCC 6258, 5 µM (≈ 13 µg/mL); with Candida albicans it was 5 µM (≈ 13 µg/mL); in experiment [34] it was 10 µM (≈ 26.1 µg/mL).

With `NCCCC[C@H](NC(=O)[C@H](Cc1ccccc1)NC(=O)[C@H](CCCN=C(N)N)NC(=O)[C@H](CCCN=C(N)N)NC(=O)[C@H](CS)NC(=O)CN)C(=O)N[C@@H](CCCCN)C(=O)N[C@@H](Cc1ccccc1)C(=O)N[C@@H](CCCCN)C(=O)N[C@@H](CCCCN)C(=O)N[C@@H](Cc1c[nH]c2ccccc12)C(=O)N[C@@H](CCCN=C(N)N)C(=O)N[C@@H](Cc1ccc(O)cc1)C(=O)N[C@@H](CCCN=C(N)N)C(=O)NCC(=O)N[C@@H](CCCN=C(N)N)C(=O)N[C@@H](Cc1ccccc1)C(=O)N[C@@H](Cc1c[nH]c2ccccc12)C(=O)N[C@@H](Cc1ccccc1)C(=O)N[C@@H](Cc1c[nH]c2ccccc12)C(=O)N[C@@H](CS)C(=O)N[C@@H](Cc1ccccc1)C(=O)NCC(N)=O` [GCRRFKKFKKWRYRGRFWFWCFG], the MIC worked out at 10.2 µM (≈ 32 µg/mL) in experiment [35]; 10.2 µM (≈ 32 µg/mL) in [36]; 20.3 µM (≈ 64 µg/mL) in [37]; 20.3 µM (≈ 64 µg/mL) in [5]; 40.7 µM (≈ 128 µg/mL) in experiment [8]; 20.3 µM (≈ 64 µg/mL) in [38]. In addition, the values for the MIC in experiment [39], in [12] and in experiment [40] were 20.3 µM (≈ 64 µg/mL), 20.3 µM (≈ 64 µg/mL) and not below 40.7 µM, respectively.

One may read the MIC as the least concentration at which growth counts as inhibited. High values mean a less susceptible organism, low ones a more susceptible organism.
